# Measured values reported in US11338025B2, “Vaccine therapy for treatment of endometrial and ovarian cancer” (The Henry M. Jackson Foundation for the Advancement of …, priority 2016, dated 2022).
# Ends that are not written are not given here.
# Columns and labels:
# [1] = tested on: tumor-associated lymphocyte (TAL); details: previous studies (Peoples et al. 1998); cited from earlier work
# [2] = Local and systemic toxicity (NCI CTCAE v4.03) of E39+GM-CSF vaccination; format: in vivo, human
# Procedure: Standard local and systemic toxicities were collected and graded per the National Cancer Institute Common Terminology Criteria for Adverse Events, v4.03 toxicity scale. For the vaccine series (one vaccine/month for six months), patients were monitored closely for one hour after vaccine inoculation with questioning, serial exams and vital signs every 15 minutes to observe for a hypersensitivity reaction. Systemic toxicity and inoculation site local reactions were also determined after 48-72 hours.
# [3] = Local reactions (LR) 48-72 hours after booster; details: 500 mcg peptide + 250 mcg GM-CSF
# Text: Therefore, to assess the use of the attenuated E39′ peptide as a booster, E39-vaccinated patients described in Example 1 were randomized to receive either E39 or E39′ as a booster to determine the effect on long-term E39-specific immunity. Patients in the VG received six intradermal E39 injections as described in Example 1 as a primary vaccination schedule (PVS). At six months (B1) and at twelve months (B2) after completion of the PVS, patients received either 500 mcg of E39′ and 250 mcg GM-CSF or 500 mcg E39 and 250 mcg of GM-CSF as a booster.
# Local reactions (LR) were recorded 48-72 hours after each booster. Immune response was determined by measurement of E39 specific CTL levels using a Dextramer reagents in accordance with the manufacturer's instructions (Immudex Limited, Copenhagen, Denmark) as previously described (e.g., Tario et al. Cytometry B Clin. Cytom. 2015; 88B:6-20; Baba J. Transl Med. 2010; 8:84), at RO (baseline pre-vaccination), RC1 (1 month after completion of PVS), RC6 (6 months after completion of PVS and before booster), RC7 (1 month after booster) and RC12 (6 months after booster and 12 months after completion of PVS).
substance,measurement,setting,value
"E41: FRα-derived immunogenic peptide (FRα 245-253) of previous studies (LLSLALMLL; UniProt P15328 245-253, looked up, fragment)",effect on TAL proliferation and anti-tumor function,[1],capable of enhancing tumor-associated lymphocyte (TAL) proliferation and anti-tumor function
"EIWTHSYKV [E39, EIWTHSYKV]",tolerability of the vaccine,"[2]; E39+GM-CSF, disease-free endometrial and ovarian cancer patients",well tolerated
same,Local and systemic toxicities,[2]; in vivo,mild
same,patients experiencing grade 3 toxicity,[2]; in vivo,1 patient
"EIWTFSTKV [E39′, EIWTFSTKV]",average LR,[3]; B1 booster (6 months after PVS),79.7±14.0 mm
same,average LR,[3]; B2 booster (12 months after PVS),74.1±11.5 mm
